Assay results from US12590100B2, “Tetrahydro-spiroindoline-pyrrolopyrrole-triones inhibitors of the NRF2-β-TrCP interaction for use in the treatment of fatty liver disease” (Universidad Autonoma De Madrid, priority 2021, dated 2026).

Assays:
[1] = tested on: peritoneal macrophages (Nrf2+/+); test: Inflammatory response in LPS-stimulated peritoneal macrophages from Nrf2+/+ mice; assay type: cell-based, mouse; details: PHAR 10 μM 8 h, LPS 100 ng/ml 4 h
Method: FIG. 8. PHAR reduces inflammatory response in peritoneal macrophages originating from Nrf2^+/+ mice but not in peritoneal macrophages originating from LPS-stimulated Nrf2-4KI mice. Peritoneal macrophages originating from wild-type (WT) and serum-deprived NRF2 knock-in (Nrf2-4Ki) mice were pretreated with 10 μM of PHAR for 8 h. 0.1% DMSO was used as a vehicle. After that period of time, the cells were treated with 100 ng/ml of LPS for 4 h. A), representative immunoblots originating from both cell types of NRF2, HO1, pre-IL1β, COX2, NOS2, and GAPDH as a loading control. B), densitometric analysis of NRF2 and HO1 protein levels of the representative immunoblots of (A), expressed as a ratio of protein/GAPDH levels. The data is depicted as means±SEM (n=3). Statistical analysis was performed with two-way ANOVA followed by the Bonferroni test to compare inter-group differences. *p<0.05; **p<0.01; ***p<0.001 vs. LPS. C), Densitometric analysis of pre-IL1b, COX2, and NOS2 protein levels of the representative immunoblots of (A), expressed as a ratio of protein/GAPDH levels. The data is depicted as means±SEM (n=3). […] D), the mRNA levels of Hmox1, Il1 β, Cox2, Nos2, Il6, and Tnfα were determined by means of qRT-PCR and normalized by means of average Gapdh, Thp, and β-actin. […]

STAM mice (NAFLD) = test: STAM fatty liver model, treatment from steatosis stage (week 6); assay type: in vivo, mouse
Method: FIG. 12. PHAR decreases the inflammatory response in mice subjected to fatty liver in the STAM model. The STAM model is based on the induction of non-alcoholic fatty liver (NAFLD) generated by the subcutaneous injection of streptozotocin (STZ) in neonatal C57BL/6J mice (2-5 days old) followed by a high-fat diet administered from 4 weeks of age. In this case, we treated mice in the steatosis stage (week 6), 5 days a week with an IP administration of 50 mg/kg in order to analyze if PHAR prevents progression to the next stage (NASH). A), H&E staining of liver from PHAR-treated and untreated STAM mice. Histochemical lipid staining with oil red was used to visualize the amount of liver fat. B), normalized quantification of the amount of liver fat per mouse, measured by MRI, on the last day of treatment. C), representative MRI profiles of one mouse liver of each group. The peak that appears at an approximate frequency of 4.7 ppm corresponds to the water molecule (the majority), while the rest of the peaks give information on the amount of liver fat. The ratio of the sum of the fat peaks to water indicates the total liver fat content. D), mRNA levels of several genes involved in fatty acid metabolism (Cpt1a, Scd1, Cd36 and Fasn). E), the mRNA levels of the pro-inflammatory (Tnf, Il6 and Infg) and anti-inflammatory (Il10 and Il4) cytokines were determined by qRT-PCR and were normalized by the average of Gapdh, Tbp and β-actin. Statistical analysis was performed using a Student's t test to compare the differences between PHAR-treated mice vs vehicle-treated mice. *p<0.05; **p<0.01.
As previously described, the STAM model is a murine model used for the study of non-alcoholic fatty liver disease (NAFLD), as well as for the search of new effective treatments. This model is generated by the subcutaneous injection of streptozotocin (STZ) in 2-5 day old neonatal C57BL/6J mice followed by a high-fat diet, administered after 4 weeks of age. STZ produces a pancreatic lesion that leads to the appearance of hyperglycemia that, together with the high-fat diet, gradually leads to different stages of progressive liver damage: steatosis (week 6 post-STZ injection); Inflammatory NASH (week 8); NASH fibrosis (week 10) and, finally, hepatocarcinoma (week 16). The pathogenesis of NAFLD is closely related to the appearance of reactive oxygen species, chronic low-grade inflammation, and changes in lipid metabolism. For this reason, we determined whether PHAR, as an inducer of NRF2, could attenuate the inflammatory response. Specifically, we treated mice in the steatosis stage (week 6), 5 days a week with an IP administration of 50 mg/kg in order to analyze if it prevents progression to the next stage (NASH). […] Altogether, we conclude that PHAR slows down the accumulation of fat and, therefore, prevents the appearance of NASH.

[2] = STAM mice from week 6, IP 50 mg/kg 5 days a week

O=C1[C@@H]2[C@H](Cc3c[nH]c4ccccc34)N[C@]3(C(=O)Nc4ccc(Cl)cc43)[C@@H]2C(=O)N1c1ccc2c(c1)OCCO2 [PHAR]
NRF2 and HO-1 protein levels [1]: significant increase in NRF2 and HO-1 protein levels | production of inflammatory markers, protein (pre-IL1β, COX2, NOS2) and mRNA (Il1β, Cox2, Nos2, Il6, Tnfα) [1]: significantly lower | accumulated liver fat (oil red) (STAM mice (NAFLD); [2]): significantly decreased the amount of accumulated liver fat | liver fat quantity by MRI at the end of treatment (STAM mice (NAFLD); [2]): slows the accumulation of liver fat | expression of anti-inflammatory cytokines Il10 and Il4 (STAM mice (NAFLD); STAM mice from week 6, liver): to increase the anti-inflammatory cytokines | expression of pro-inflammatory cytokines Tnf, Il6, Infg (STAM mice (NAFLD); STAM mice from week 6, liver): tendency to decrease | fatty acid synthesis, Fasn expression (mRNA) (STAM mice (NAFLD); STAM mice from week 6, liver): decreasing of Fasn | lipid catabolism, expression of Cpt1a (mRNA) (STAM mice (NAFLD); STAM mice from week 6, liver): increase in lipid catabolism
